Results on one compound are retold here after PMC6274259, “New 3-Cyano-2-Substituted Pyridines Induce Apoptosis in MCF 7 Breast Cancer Cells” (Molecules, 2016).

One series concerns MCF-7 cells. The series can be described thus: Flow cytometric cell cycle analysis (PI staining). It counts as cell-based, human. The following applies: 2 μM, 24 h; control group 37%. How it is done: Flow cytometry is considered one of the specific tools for the investigation of molecular and morphological events occurring during cell death and cell proliferation. Therefore, the effect of compound 9a on cell cycle progression was studied by flow cytometry in propidium iodide (PI) stained cells. The percent of cells in G1, S, G2 phases was determined after treating cells with 2 μM of 9a for 24 h (Figure 4D). […] Thus, it can be concluded that compound 9a inhibits the proliferation of MCF-7 cells and the growth inhibition is associated with induction of G1 phase arrest. p27 is considered as an important regulator of cell cycle. To determine whether compound 9a-induced G1 arrest was associated with increased p27 level, and to study the effect on the expression of CDK2 and CDK4 involved in cell cycle progression, cells were analyzed for the expression of these proteins using western blot analysis after treatment with 2 μM of 9a for 24 h.
MCF-7 cells were seeded in 25 cm^2 flasks until reaching the desirable confluence of 1 million cells and media was changed to media containing compound 9a (2 μM). After 24 h incubation, the cells were harvested by trypsinization to detach the cells without affecting the integrity of the cell membrane. The cells were incubated with PI for 5 min at room temperature, washed twice with PBS and […]. […]
On the technique in general: A flow cytometer gives signals particle by particle.

For series [1], the system named is HCT-116 human colon carcinoma cell line. The series can be described thus: WST-1 cell viability assay, HCT-116. The conditions noted are these: Homo sapiens, HCT-116; WST-1, 24 h treatment, mean ± S.D of three independent experiments. The series is classed as cell-based. An excerpt:
(§1) The synthesized compounds were screened for their cytotoxicity on five cancer cell lines, namely SK-OV-3, MCF-7, MDA-MB-231, HCT-116 and RKO, using a WST colorimetric assay. The assay principle is based upon the reduction of the tetrazolium salt WST-1 to formazan by cellular mitochondrial dehydrogenases present in viable cells. […] Among the latter compounds the benzohydrazide derivative 9a emerged with the lowest IC50 in this study against MCF-7 cells compared to 5-FU. […] Based on the fact that 9a had less cytotoxic effects on normal breast epithelial cells it was subjected to further studies.
The following cell lines were used for the screening stage, obtained from the American Type Culture Collection (ATCC, Manassas, VA, USA); SK-OV-3 (HTB-77), MCF-12A (ATCC CRL-10782), MDA-MB-231 (ATCC HTB-26), HCT-116 (CCL-247), RKO (CRL-2577) and sub-culturing of the above cell lines was conducted in 75 cm^2 flasks. The old culture media was removed and discarded after assessing the confluency of the cells and the cells were rinsed with 2–3 mL diluted trypsin (1×) (trypsin/EDTA solution consists of 0.025% trypsin and 0.01% EDTA in PBS), for about 5 minutes for complete detachment. The cells were observed under the inverted microscope until the cell layer is completely dispersed. 75 cm^2 flasks were prepared and 16 mL of DMEM media for SK-OV-3, MCF-7, MDA-MB-231, (DMEM 4500 mg glucose) and RPMI media for HCT-116 were added to each flask. The cells were aspirated gently and added to the flasks. DMEM 4500 mg/L high glucose with 10% FBS, 5% streptomycin and penicillin, RPMI 1640 (prepared by adding 5% heat-inactivated FCS and 2 mm glutamine) were used. DMEM was also used for MCF-12A cells with the addition of human epidermal growth factor 20 ng/mL, insulin 0.01 mg/mL and hydrocortisone 500 ng/mL.
The synthesized compounds were screened for their anti-proliferative activity using 5-FU (F6627-1G, Sigma-Aldrich, St. Louis, MO, USA) as reference compound. A concentration of 0.4% DMSO was used in all experiment after ensuring 100% viability of the cell lines with this concentration. A 25 mM stock concentration of all compounds was prepared for further studies and analysis.
Cells were trypsinized and placed in a 15 mL Falcon tube, the cells were centrifuged for 3 min at 1000 rpm. Trypsin is decanted using a sterile pipette and then the pellet is loosened by flicking the tube few times then 5–10 mL warm DMEM or RPMI were added to the Falcon tube and the pellet is resuspended. Cell count was done next by taking 10 μL of the suspension into the cell counting slide and read under 10× cells/mL. A cell stock of 50,000 cells/mL was prepared for the 96 wells. Cells (100 μL) were added to each well using a sterile pipette each time to ensure consistency. The experiment was planned ahead of time using excel sheet, 3–6 wells were reserved as blank media while 3–6 wells for vehicle (DMSO). The plate was incubated for 24 h for compound treatment step. DMEM media was used to prepare different dilutions of the compounds. The old DMEM media was removed from the wells using sterile pipette in the hood and the media was replaced with 100 μL media with each compound. The plate was incubated for 24 h. After 24 h incubation, WST-1 reagent (Sigma) was added to each well and then the plate was incubated for 1 h before measuring the absorbance using VICTOR™ Multilabel Plate Reader (Perkin Elmer, Beaconsfield, UK). The absorbance of the colored solution can be quantified by measuring at a certain wavelength (usually between 500–600 nm), in this experiment the first reading was conducted at 540 nm and the second reading at 690 nm for the reference wavelength. The percentage of cell viability was determined as the ratio of the absorbance of the sample vs the control. Three independent experiments were performed. […] 5-Florouracil (Sigma-Aldrich, F6627-1G) was used as reference standard.

Series [2] can be described thus: WST-1 cell viability assay, MCF-12a normal cells. It counts as cell-based, human. The following applies: human, MCF-12a normal breast epithelial cells, 2 μM, 24 h.
Excerpt: as §1, with “studies. […]” for “studies.”
(§2) Cells were trypsinized and placed in a 15 mL Falcon tube, the cells were centrifuged for 3 min at 1000 rpm. […] Cell count was done next by taking 10 μL of the suspension into the cell counting slide and read under 10× cells/mL. […] After 24 h incubation, WST-1 reagent (Sigma) was added to each well and then the plate was incubated for 1 h before measuring the absorbance using VICTOR™ Multilabel Plate Reader (Perkin Elmer, Beaconsfield, UK). The absorbance of the colored solution can be quantified by measuring at a certain wavelength (usually between 500–600 nm), in this experiment the first reading was conducted at 540 nm and the second reading at 690 nm for the reference wavelength. The percentage of cell viability was determined as the ratio of the absorbance of the sample vs the control. […]

Series [3] has as its system MCF-12a normal breast epithelial cells. The series can be described thus: WST-1 cell viability assay, MCF-12a normal cells. The series is classed as cell-based, human. The following applies: Homo sapiens, MCF-12A.
Excerpt: as §1, with “studies. […]” for “studies.”
as §2

Take `COc1ccc(-c2cc(-c3ccc(OC)c(OC)c3)c(C#N)c(OCC(=O)NNC(=O)c3ccccc3)n2)cc1OC` [Compound 9a, N'-[2-(3-cyano-4,6-bis(3,4-dimethoxyphenyl)pyridin-2-yloxy)acetyl]benzohydrazide]: the “percent of G1 population” value in the series with MCF-7 cells was 54%. Further, the results for the half-inhibitory concentration (IC50) in series [1] and in series [3] were 7.12 ± 0.37 µM and 7.5 ± 0.25 µM, respectively. In series [2], this compound showed a viability at 24 h, 2 µM of around 74%.

In general, IC50 refers to the point on the concentration scale where inhibition reaches its midpoint. Low readings indicate higher potency, high ones lower potency. In general, viability refers to a read-out of living cells in per cent, often relative to untreated cells. High values mean better survival, low ones a greater loss of cells.
